Molecules are shown by their SMILES.

For `COc1ccc(-n2c(-c3ccc(-c4ccc(-c5nc6c7ccccc7c7ccccc7c6n5-c5ccc(OC)cc5)cc4)cc3)nc3c4ccccc4c4ccccc4c32)cc1`, the melting point (commonly the temperature of the solid-liquid transition) was 403 °C.

In turn, `COCc1cc(C(O)CNCCCCCCOCCCc2ccccc2)ccc1O` (stereo not drawn) returned a melting point of 68 to 70 °C.

`CC(=O)C(CCCc1ccccc1)n1ncc2c(=O)[nH]c(Cc3ccc(-c4cccnc4)cc3)nc21` (stereo not drawn) had a melting point of 108 °C.

`N#Cc1cccc(-n2c(=O)c(N3CCCCCC3)cc3cccnc32)c1` gave a melting point of 215 to 217 °C.

As to `COc1ccc2c(c1)C(CCNC(=O)C(F)(F)F)=C(Cc1ccccc1)C2`, the melting point is 126 to 128 °C.

Consider `N#Cc1cc(Cl)nc(SCc2ccc3ccccc3c2)n1`, for which the melting point is 120 to 121 °C.

`Cn1c(COc2ccc(CC3SC(=O)NC3=O)cc2)nc2ccc(Oc3ccc(NC(=S)NCc4ccccc4)cc3)cc21` (stereo not drawn) returned a melting point of 175 to 177 °C.

As for `CC1(C)OC(=S)Nc2ccc(-c3ccc(C#N)[nH]3)cc21`, the melting point was in the range of 261 to 262 °C.

`CS(=O)(=O)c1ccc(-c2sc(-c3ccccc3Cl)nc2-c2cccs2)cc1` registered a melting point of 171 to 174 °C.

On to `COc1ccc(-c2nnn(-c3ccc(Cl)cc3Cl)c2N)cc1`, for which the melting point was in the range of 149 to 151 °C.

In the case of `CCOC(=O)c1cn(C2CC2)c2c(F)c(-c3cc(C)nc(C)c3)c(F)cc2c1=O`, the melting point lay in the range of 186 to 187 °C.

In turn, `COC1CC2(C)C(CCC3C4CC=C(C(C)=O)C4(C)CC(=O)C32)CC1O` (stereo not drawn) displayed a melting point of 159 to 163 °C.

`COC(=O)c1ccc2c(c1)N(C(C)C)C(=O)C(C)(C)O2` registered a melting point of 75 to 77 °C.

`C#CCn1c(-c2ccccc2)nc(C(=O)N(C)C)c(C)c1=O` showed a melting point of 137 to 140 °C.

The compound `CC(C)n1cc(-c2ccc(NC(=O)c3ccccc3)cc2)c2c(N)ncnc21` came in with a melting point of 192 to 195 °C.

Compound `O=C(Nc1ccccc1)O[C@@H]1CN=C(c2ccc(OC(F)(F)F)cc2)O[C@H]1c1ccccc1` (racemic) came in with a melting point of 128 °C.

Take `CC(C)C(=O)NCc1cccc(-c2nc(=O)c3ccccc3s2)n1`: the melting point is 189 °C.

`O=C(NCC1CC1)c1c(NC(=O)c2cc(C(F)(F)F)nn2-c2ncccc2Cl)c(Br)cc2cn[nH]c12` gave a melting point of 144 to 150 °C.

Compound `COc1ccc(O)c(CNc2ccccc2)c1` returned a melting point of 82 to 84 °C.

`CC(=O)c1ccc(Cc2ccc(F)cc2)o1` showed a melting point of 27 to 29 °C.

`Cc1ccccc1-c1ccc2c(c1)CCCc1c-2nc2ccc(F)cc2c1C(=O)O`: the melting point was over 300 °C.

The compound `Cc1ccc(S(=O)O)cc1` returned a melting point of 55 to 57 °C.

In the case of `OCCCC#Cc1ccc(C(=C2CCCCCC2)c2ccc(O)cc2)cc1`, the melting point was in the range of 125 to 126 °C.

Take `CCc1[nH]n(C2CCCC2)c2nc(Cc3cccs3)nc(=O)c1-2`: the melting point was 173 to 174 °C.

Take `CNc1nc(-c2cncc(Br)c2)c2cc(OC)c(OC)cc2n1`: the melting point lay within 228 to 230 °C.

In turn, `C=C(C)COc1ccc2c(=O)c(C)c(-c3ccccc3)oc2c1C(=O)C=Cc1ccccc1` showed a melting point of 145 to 147 °C.

`CCCCCCCCCCOS(=O)(=O)NC(=O)Nc1c(C(C)C)cccc1C(C)C` registered a melting point of 133 to 135 °C.

For `C#CCOc1cc(Oc2cccc(Cl)c2Cl)ncn1`, the melting point came to 91.9 °C.

Turning to `COc1cc(OC)nc(Sc2nccc(-c3cccc(Cl)c3)c2C(=O)NS(C)(=O)=O)n1`, the melting point is 54 to 58 °C.

`O=C(O)C1(C(=O)O)CC2CCC2C1` (stereo not drawn): the melting point fell in the range of 161 to 170 °C.

Consider `O=CC1C(=O)CCC(c2ccccc2)(c2ccccc2)C1C[N+](=O)[O-]` (stereo not drawn), for which the melting point came out at 188 °C.

Compound `O=C(O)/C=C/c1ccnc(-c2nc(=O)c3ccccc3s2)c1` registered a melting point of 284 to 285 °C.

Take `O=C1c2ccccc2C(=O)N1CCCCCCc1cncnc1`: the melting point fell in the range of 124 to 126 °C.

Consider `O=C(O)CCCCCCc1ncsc1C(=O)O`, for which the melting point is 151 to 153 °C.

`CC(=O)N(O)C(C)c1ccc2c(c1)oc1ccccc12` (stereo not drawn) came in with a melting point of 132 to 135 °C.

For the compound `CN1C(C(=O)O)C(=O)c2ccccc2S1(=O)=O` (stereo not drawn), the melting point lay within 144 to 146 °C.

On to `CC(C)(C)OC(=O)[C@H](CCSCc1cn(C(c2ccccc2)(c2ccccc2)c2ccccc2)cn1)NC(=O)OCc1ccccc1`, for which the melting point was in the range of 183 to 185 °C.

Compound `O=C(COc1ccccc1)Nc1c(Cl)ccc2nc(N3CC[C@@H](O)C3)ccc12` displayed a melting point of 233 to 235 °C.

Regarding `Cc1cc(C)c(C(O)c2cc(-n3ccnc3)ccc2C)c(C)c1` (stereo not drawn), the melting point is 190 to 191 °C.

`Nc1cc(CCC(=O)N(c2ccccc2)c2ccccc2)ccc1O` had a melting point of 170 to 172 °C.

For the compound `O=C1Nc2cc(Cl)ccc2C(=O)C1c1ccsc1` (stereo not drawn), the melting point lay in the range of 341 to 344 °C.

`CN(C)C(=O)c1nn(-c2ccncc2)c(=O)c2c1c1ccc(Cl)cc1n2C`: the melting point fell in the range of 276 to 278 °C.

In turn, `O=C1CC(CP(=O)(c2ccccc2)c2ccccc2)O1` (stereo not drawn) returned a melting point of 154 to 155 °C.

Regarding `CCC(CC)(CCCS(N)(=O)=O)COc1nn2ccnc2cc1C`, the melting point is 139 to 140 °C.

For `COCCn1nc2c(N)nc3ncccc3c2c1CC(C)(C)C(N)=O`, the melting point was 254 to 257 °C.

For `COc1cccc(-c2cncc(OC3SCC(OC(C)=O)C(OC(C)=O)C3OC(C)=O)c2)c1` (stereo not drawn), the melting point lay within 112 to 115 °C.

`CC1CCCC(C)N1Cc1ccc2cc(NC(=O)C3(Cl)C=CC(c4ccccc4Cl)=CC3)ccc2n1` (stereo not drawn) returned a melting point of 162 to 164 °C.

Regarding `Cc1cc(NC(=O)OC(C)(C)C)c(N)cc1C#Cc1ccccc1`, the melting point lay in the range of 172 to 173 °C.

Take `N#Cc1ccc(NC(=O)c2ccccc2SSc2ccccc2C(=O)Nc2ccc(C#N)cc2)cc1`: the melting point was 239 to 241 °C.

As to `CS(=O)c1ccc(F)c(-c2nc3ncccc3[nH]2)c1` (stereo not drawn), the melting point is 190 to 192 °C.

`Oc1ccc(C(F)(F)C(F)(F)C(F)(F)/C=C/C(F)(F)C(F)(F)C(F)(F)c2ccc(O)cc2)cc1` displayed a melting point of 134 to 138 °C.

The compound `CCOC(=O)C(CCc1ccccc1)NC1CSC(c2ccsc2)CN(CC(=O)O)C1=O` (stereo not drawn) registered a melting point of 165 °C.

`NC(=O)CCc1ccc([N+](=O)[O-])cc1` displayed a melting point of 177 to 178 °C.

Take `CC(Cc1ccccc1)(C(=O)O)S(=O)(=O)c1cccs1` (stereo not drawn): the melting point lay within 116 to 117 °C.

`Fc1ccc(C(Cl)(Cn2cncn2)C2(n3cncn3)CC2)cc1` (stereo not drawn) gave a melting point of 81 to 84 °C.

In the case of `CCn1ncc2c(NCc3ccccc3)c3ccc(O)cc3nc21`, the melting point lay within 252 to 254 °C.

On to `CCCCc1cc(C=CC(=O)OC)c[nH]1`, for which the melting point fell in the range of 65 to 67 °C.

`CCOc1nn(Cc2ccc(OCc3nc(-c4ccco4)oc3C)nc2)cc1CC(=O)O` gave a melting point of 155 to 156 °C.

Turning to `CC(=O)Nc1ccccc1C(=O)C=Cc1ccncc1`, the melting point was found to be 130 °C.

`COc1ccc(-c2c(-c3ccccc3)c(Sc3ccc4c(c3)CC[C@H]3N(C)C(=O)CC[C@]43C)nc3ccccc23)cc1` showed a melting point of 239 to 242 °C.

Compound `COc1cc(C(O)c2c(O)c(=O)ccn2CCO)ccc1O` (stereo not drawn) displayed a melting point of 179 to 190 °C.

Consider `O=C1Nc2ccccc2C12COc1ccc3c(c12)N(Cc1ccccn1)ON3` (stereo not drawn), for which the melting point lay in the range of 180 to 182 °C.

Turning to `O=C(C1CCNCC1)N1CCN(c2cccc3[nH]ccc23)CC1`, the melting point was over 240 °C.

Take `CC1CC(C)C(C)(C)c2ccc(-c3cccc(-c4ccc(C(=O)O)cc4)c3O)cc21` (stereo not drawn): the melting point worked out at 121 °C.

On to `Cc1cc(C)c(S(=O)(=O)NCCCCOc2ccc(-n3ccnc3)cc2)c(C)c1`, for which the melting point lay in the range of 130 to 131 °C.

`O=C(c1ccc(O)cc1)C12CC3CC(C1)CC(C(=O)c1ccc(O)cc1)(C3)C2` returned a melting point of 208 to 209 °C.

In turn, `c1ccc2c3c([nH]c2c1)CNCC3` came in with a melting point of 190 to 191 °C.

Turning to `Cn1cc(C(=O)O)c(=O)c2cc3cc(F)c(N4CCN(O)CC4)cc3nc21`, the melting point amounted to 290 °C.

`COc1ccc(C=C(C)[N+](=O)[O-])c(OC)c1OC` came in with a melting point of 57 to 58 °C.

For `CCOC(=O)C1CCN(c2ccc(/C=C/C(=O)O)cc2)CC1`, the melting point is 212 °C.

Compound `CC(C)=CCCn1ccnc1[N+](=O)[O-]` returned a melting point of 49 to 51 °C.

Regarding `Nc1c(Cl)cc(-c2nn(C3CCN(CCCC(F)(F)F)CC3)c(=O)o2)c2c1OCCO2`, the melting point stood at 188 °C.

`COC(=O)CC[C@H](NC(=O)c1ccc(C#Cc2cnc3nc(NC(=O)C(C)(C)C)nc(O)c3c2)s1)C(=O)OC`: the melting point lay in the range of 228 to 230 °C.

With `CC1(C)C2CC3=C(CCC(=O)O3)C1C2` (stereo not drawn), the melting point came out at 60 °C.

Turning to `Cc1ccc([N+](=O)[O-])c(C=C2C(=O)NC(=O)N2C)c1C`, the melting point lay within 195 to 198 °C.

Compound `CCn1nc(-c2cccc(Cl)c2)c2ncccc2c1=O` yielded a melting point of 117 to 118 °C.

For `COc1cccc(C2CCCCN(C)C2=O)c1` (stereo not drawn), the melting point was 73 to 74 °C.

As to `CC(=O)N[C@H]1C[C@@H](c2cc(NC(=O)Cc3cccc4ccccc34)n[nH]2)C1`, the melting point was determined as 209 °C.

`Clc1cccc(Cl)c1Cn1c(-c2ccc3c(c2)OCO3)nc2ccccc21` showed a melting point of 187 to 189 °C.

The compound `CCC1CCCCN1CCNc1ccnc2cc(Cl)ccc12` (racemic) showed a melting point of 115 to 117 °C.

Regarding `CN1C(=O)C(NC(=O)Nc2ccccc2)N=C(c2ccccc2)c2ccccc21` (stereo not drawn), the melting point was 260 to 261 °C.

For the compound `CC(=O)Nc1cc(F)ccc1C(=O)NCCN1CCC2(CC1)C(=O)NCN2c1ccc(F)cc1`, the melting point was determined as 195 °C.

Compound `Nc1cc(F)ccc1C(=O)NCCN1CCC(n2c(=O)[nH]c3ccccc32)CC1` came in with a melting point of 229 °C.

`C=C(Cl)CSC(=S)Nc1ccc(Cl)cc1C` returned a melting point of 88 to 90.5 °C.

As for `CCc1ccc(NC(=N)c2ccc(SC)cc2)cc1`, the melting point lay in the range of 156 to 158 °C.

`CCCc1nn(-c2ccc(C(F)(F)F)cn2)cc1CCCOc1nn(C)cc1CCC(=O)O`: the melting point fell in the range of 103 to 104 °C.

For the compound `O=C1CCC(c2ccc(F)c(F)c2)CC1`, the melting point stood at 61 °C.

In turn, `O=C(O)CNC(=O)c1nc(Cl)c2cc(Cl)c(Cl)cc2c1O` came in with a melting point of 265 °C.

Source of the values: a melting point compilation (Tetko et al.; mined from patent text by program, amines drawn as free bases though some values may be those of a salt).
